The values that follow are results of earlier work, collected in patent US10561603B2, “Core-shell structure and topical agent” (SEKISUI CHEMICAL CO., LTD., priority 2015, dated 2020).

Counter-ions that a name gives are not always drawn.

For this data set the following is noted: given with manufacturer and molecular weight of the drug raw material.

Consider `C[C@@H](O)[C@@H]1NC(=O)[C@H](CCCCN)NC(=O)[C@@H](Cc2c[nH]c3ccccc23)NC(=O)[C@H](Cc2ccccc2)NC(=O)[C@@H](NC(=O)[C@H](N)Cc2ccccc2)CSSC[C@@H](C(=O)N[C@H](CO)[C@@H](C)O)NC1=O` [octreotide acetate], for which the water-octanol partition coefficient was 0.1.
For `CCCc1nc(C)c2c(=O)[nH]c(-c3cc(S(=O)(=O)N4CCN(CC)CC4)ccc3OCC)nn12` [vardenafil hydrochloride trihydrate], the water-octanol partition coefficient is 3.2.
